Test results published in ChEMBL document CHEMBL4616621, “Pro-apoptotic carboxamide analogues of natural fislatifolic acid targeting Mcl-1 and Bcl-2” (Bioorg Med Chem Lett, 2020).

Tests used:
Bcl-2-like protein 1 = Bcl-2-like protein 1 (Homo sapiens, UniProt Q07817); test: Inhibition of Bcl-xL (unknown origin)/Bak interaction preincubated for 5 mins followed by fluorescein-labeled peptide addition and measured after 10 mins by fluorescein-labeled peptide displacement based fluorescence polarization assay
[1] = target: Induced myeloid leukemia cell differentiation protein Mcl-1 (Homo sapiens, UniProt Q07820); test: Inhibition of Mcl-1 (unknown origin)/Bid interaction preincubated for 5 mins followed by fluorescein-labeled peptide addition and measured after 10 mins by fluorescein-labeled peptide displacement based fluorescence polarization assay
MCF7 = test: Antiproliferative activity against human MCF7 cells assessed as cell death; type: functional, cell-based
[2] = target: Apoptosis regulator Bcl-2 (Homo sapiens, UniProt P10415); test: Inhibition of Bcl2 (unknown origin)/Bim interaction preincubated for 5 mins followed by fluorescein-labeled peptide addition and measured after 10 mins by fluorescein-labeled peptide displacement based fluorescence polarization assay
A549 = test: Antiproliferative activity against human A549 cells assessed as cell death; type: functional, cell-based

Chain of Induced myeloid leukemia cell differentiation protein Mcl-1 (Q07820 whole entry): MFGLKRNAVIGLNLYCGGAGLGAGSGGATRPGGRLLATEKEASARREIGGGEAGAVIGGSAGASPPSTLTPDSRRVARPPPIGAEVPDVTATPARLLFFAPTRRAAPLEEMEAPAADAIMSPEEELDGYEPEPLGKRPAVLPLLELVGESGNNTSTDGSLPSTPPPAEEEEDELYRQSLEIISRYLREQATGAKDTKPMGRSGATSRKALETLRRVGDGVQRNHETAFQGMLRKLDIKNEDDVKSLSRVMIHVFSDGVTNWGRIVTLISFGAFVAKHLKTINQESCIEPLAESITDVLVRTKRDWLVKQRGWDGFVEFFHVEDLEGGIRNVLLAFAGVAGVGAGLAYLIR
Chain of Bcl-2-like protein 1 (Q07817 whole entry): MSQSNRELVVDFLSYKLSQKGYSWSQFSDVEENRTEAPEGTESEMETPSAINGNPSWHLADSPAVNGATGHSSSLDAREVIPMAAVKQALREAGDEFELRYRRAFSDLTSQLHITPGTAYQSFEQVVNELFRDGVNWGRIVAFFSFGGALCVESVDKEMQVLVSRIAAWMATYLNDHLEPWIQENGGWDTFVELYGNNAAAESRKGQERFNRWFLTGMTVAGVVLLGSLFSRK
Chain of Apoptosis regulator Bcl-2 (P10415 whole entry): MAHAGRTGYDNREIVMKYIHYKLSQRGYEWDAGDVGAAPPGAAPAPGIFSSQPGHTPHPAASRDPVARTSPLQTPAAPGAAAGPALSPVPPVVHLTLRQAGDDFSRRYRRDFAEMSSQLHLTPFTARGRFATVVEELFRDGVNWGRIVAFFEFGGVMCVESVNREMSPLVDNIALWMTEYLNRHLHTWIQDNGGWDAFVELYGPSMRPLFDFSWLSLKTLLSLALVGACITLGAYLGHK

SMILES	Ki (Bcl-2-like protein 1)	Ki [1]	IC50 (MCF7)	Ki [2]	IC50 (A549)
CC(C)=CCCC1=CC[C@H](C(=O)Nc2ccc(O)cc2)[C@@H](c2ccccc2)C1	> 23 µM	> 33 µM	66.7 µM	> 23 µM	66.8 µM
CON(C)C(=O)[C@@H]1CC=C(CCC=C(C)C)C[C@H]1c1ccccc1	> 23 µM	> 33 µM	–	> 23 µM	–
CC(C)=CCCC1=CC[C@H](C(=O)NO)[C@@H](c2ccccc2)C1	19 µM	7.3 µM	72.3 µM	0.6 µM	71.7 µM
COC(=O)CCNC(=O)[C@H]1CC=C(CCC=C(C)C)C[C@@H]1c1ccccc1	> 23 µM	5.5 µM	96.8 µM	3.1 µM	87.9 µM
CC(C)=CCCC1=CC[C@@H](C(=O)N(C)C)[C@H](c2ccccc2)C1	> 23 µM	> 33 µM	–	> 23 µM	–
COc1ccc(NC(=O)[C@@H]2CC=C(CCC=C(C)C)C[C@H]2c2ccccc2)cc1	> 23 µM	> 33 µM	–	> 23 µM	–
CC(C)=CCCC1=CC[C@H](C(=O)O)[C@@H](c2ccccc2)C1	5.7 µM	4 µM	64.3 µM	> 23 µM	53.7 µM
CC(C)=CCCC1=CC[C@H](C(=O)N(C)C)[C@@H](c2ccccc2)C1	20.1 µM	5.4 µM	–	> 23 µM	–
COC(=O)c1ccc(NC(=O)[C@H]2CC=C(CCC=C(C)C)C[C@@H]2c2ccccc2)cc1	> 23 µM	> 33 µM	–	> 23 µM	–
CONC(=O)[C@H]1CC=C(CCC=C(C)C)C[C@@H]1c1ccccc1	> 23 µM	16.6 µM	45.2 µM	2.4 µM	42.2 µM
CON(C)C(=O)[C@H]1CC2=C(CCCC2(C)C)C[C@@H]1c1ccccc1	> 23 µM	18.9 µM	–	> 23 µM	–
CC(C)=CCCC1=CC[C@H](C(=O)Nc2ccc(C(=O)O)cc2)[C@@H](c2ccccc2)C1	> 23 µM	8.5 µM	–	> 23 µM	–
CC1(C)CCCC2=C1C[C@@H](C(=O)O)[C@H](c1ccccc1)C2	> 23 µM	> 33 µM	–	> 23 µM	–
CC1(C)CCCC2=C1C[C@H](C(=O)O)[C@@H](c1ccccc1)C2	> 23 µM	9 µM	–	> 23 µM	–
COc1ccc(NC(=O)[C@H]2CC=C(CCC=C(C)C)C[C@@H]2c2ccccc2)cc1	> 23 µM	> 33 µM	–	> 23 µM	–
CC(C)=CCCC1=CC[C@@H](C(N)=O)[C@H](c2ccccc2)C1	> 23 µM	> 33 µM	–	> 23 µM	–

SMILES	Ki (Bcl-2-like protein 1)	Ki [1]	IC50 (MCF7)	Ki [2]	IC50 (A549)
CC(C)=CCCC1=CC[C@H](C(=O)N(C)O)[C@@H](c2ccccc2)C1	> 23 µM	7.2 µM	–	2.1 µM	–
CCCCCC[C@H]1C(=O)O[C@H](C)[C@H](NC(=O)c2cccc(NC=O)c2O)C(=O)O[C@@H](C)[C@@H]1OC(=O)CC(C)C [ANTIMYCIN A]	–	–	–	–	6.5 µM
CC(C)=CCCC1=CC[C@@H](C(=O)Nc2ccc(O)cc2)[C@H](c2ccccc2)C1	> 23 µM	> 33 µM	–	> 23 µM	–
CC(C)=CCCC1=CC[C@@H](C(=O)N(C)O)[C@H](c2ccccc2)C1	> 23 µM	9.2 µM	–	2.3 µM	–
CON(C)C(=O)[C@@H]1CC2=C(CCCC2(C)C)C[C@H]1c1ccccc1	> 23 µM	15 µM	–	> 23 µM	–
COC(=O)CCNC(=O)[C@@H]1CC=C(CCC=C(C)C)C[C@H]1c1ccccc1	> 23 µM	15 µM	–	> 23 µM	–
CC(C)=CCCC1=CC[C@@H](C(=O)NCCC(=O)O)[C@H](c2ccccc2)C1	> 23 µM	> 33 µM	–	> 23 µM	–
CONC(=O)[C@@H]1CC=C(CCC=C(C)C)C[C@H]1c1ccccc1	> 23 µM	> 33 µM	–	2.7 µM	–
CC(C)=CCCC1=CC[C@@H](C(=O)O)[C@H](c2ccccc2)C1	9.6 µM	8.6 µM	–	> 23 µM	–
COC(=O)c1ccc(NC(=O)[C@@H]2CC=C(CCC=C(C)C)C[C@H]2c2ccccc2)cc1	> 23 µM	> 33 µM	–	> 23 µM	–
CON(C)C(=O)[C@H]1CC=C(CCC=C(C)C)C[C@@H]1c1ccccc1	> 23 µM	0.9 µM	42.1 µM	0.3 µM	31.2 µM
CC(C)=CCCC1=CC[C@@H](C(=O)NO)[C@H](c2ccccc2)C1	17.4 µM	8.2 µM	–	0.7 µM	–
CC(C)=CCCC1=CC[C@@H](C(=O)Nc2ccc(C(=O)O)cc2)[C@H](c2ccccc2)C1	> 23 µM	> 33 µM	–	2.2 µM	–
CC(C)=CCCC1=CC[C@H](C(N)=O)[C@@H](c2ccccc2)C1	> 23 µM	> 33 µM	–	> 23 µM	–
CC(C)=CCCC1=CC[C@H](C(=O)NCCC(=O)O)[C@@H](c2ccccc2)C1	> 23 µM	> 33 µM	–	> 23 µM	–
